# Active and inactive are the calls of the source. No cut-off for these calls is given here.
# How the values were obtained:
# [1] = test system: Bacillus subtilis; assay: Antibacterial activity against Bacillus subtilis ATCC 9372 incubated for 24 hrs by CLSI protocol based broth microdilution method; type: functional; details: ATCC 9372, 24 h
# [2] = test system: Bacillus pumilus; assay: Antibacterial activity against Bacillus pumilus CMCC63202 incubated for 24 hrs by CLSI protocol based broth microdilution method; type: functional; details: CMCC63202, 24 h
# [3] = test system: Staphylococcus aureus; assay: Antibacterial activity against Staphylococcus aureus ATCC 25923 incubated for 24 hrs by CLSI protocol based broth microdilution method; type: functional; details: ATCC 25923, 24 h
# [4] = test system: Staphylococcus aureus; assay: Antibacterial activity against methicillin-resistant Staphylococcus aureus ATCC 43300 incubated for 24 hrs by CLSI protocol based broth microdilution method; type: functional; details: ATCC 43300, 24 h
# [5] = test system: Staphylococcus aureus; assay: Antibacterial activity against penicillin-resistant Staphylococcus aureus clinical isolate incubated for 24 hrs by CLSI protocol based broth microdilution method; type: functional
# [6] = test system: Escherichia coli; assay: Antibacterial activity against Escherichia coli ATCC 25922 incubated for 24 hrs by CLSI protocol based broth microdilution method; type: functional; details: ATCC 25922, 24 h
# [7] = test system: Pseudomonas aeruginosa; assay: Antibacterial activity against Pseudomonas aeruginosa ATCC 27853 incubated for 24 hrs by CLSI protocol based broth microdilution method; type: functional; details: ATCC 27853, 24 h
# [8] = target: T1, Cell division protein FtsZ (Bacillus subtilis (strain 168)) (UniProt P17865); assay: Induction of Bacillus subtilis FtsZ polymerization in presence of GTP at 5 ug/ml measured over 30 mins by microtiter plate-based light-scattering assay
# T1 sequence (whole entry): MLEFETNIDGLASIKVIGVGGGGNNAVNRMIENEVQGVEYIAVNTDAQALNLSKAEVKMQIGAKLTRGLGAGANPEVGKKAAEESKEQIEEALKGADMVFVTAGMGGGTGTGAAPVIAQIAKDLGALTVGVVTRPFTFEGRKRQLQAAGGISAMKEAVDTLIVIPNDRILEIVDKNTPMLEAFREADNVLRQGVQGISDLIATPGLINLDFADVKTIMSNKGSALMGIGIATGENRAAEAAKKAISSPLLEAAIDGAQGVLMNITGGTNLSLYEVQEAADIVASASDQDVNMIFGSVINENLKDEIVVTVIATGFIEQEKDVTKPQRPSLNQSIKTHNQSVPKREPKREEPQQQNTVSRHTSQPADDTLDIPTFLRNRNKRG
# [9] = test system: Staphylococcus aureus; assay: Antibacterial activity against Staphylococcus aureus clinical isolate incubated for 24 hrs by CLSI protocol based broth microdilution method; type: functional
# [10] = test system: Staphylococcus aureus; assay: Bactericidal activity against methicillin-resistant Staphylococcus aureus ATCC 43300 assessed as log reduction in viable bacterial count at 4 ug/ml incubated for 24 hrs by time-kill curve assay; type: functional
# [11] = test system: Staphylococcus aureus; assay: Bactericidal activity against Staphylococcus aureus ATCC 25923 assessed as 3 log reduction in number of colony forming units incubated for 24 hrs followed by aliquots transfer to tryptic soy agar and grown for 24 hrs; type: functional; details: ATCC 25923, 24 h
# [12] = test system: Staphylococcus aureus; assay: Bactericidal activity against Staphylococcus aureus ATCC 43300 assessed as 3 log reduction in number of colony forming units incubated for 24 hrs followed by aliquots transfer to tryptic soy agar and grown for 24 hrs; type: functional; details: ATCC 43300, 24 h
# [13] = test system: Staphylococcus aureus; assay: Bactericidal activity against penicillin-resistant Staphylococcus aureus clinical isolate assessed as 3 log reduction in number of colony forming units incubated for 24 hrs followed by aliquots transfer to tryptic soy agar and grown for 24 hrs; type: functional
# [14] = test system: Staphylococcus aureus; assay: Ratio of MBC for Staphylococcus aureus ATCC 25923 to MIC for Staphylococcus aureus ATCC 25923; type: functional
# [15] = test system: Staphylococcus aureus; assay: Bactericidal activity against methicillin-resistant Staphylococcus aureus ATCC 43300 assessed as log reduction in viable bacterial count at 2 ug/ml incubated for 24 hrs by time-kill curve assay; type: functional
# [16] = Stability in mouse plasma assessed as degradation of compound at 25 ug/ml incubated for 24 hrs by RP-HPLC analysis; type: ADME, cell-free
# [17] = Clearance in mouse liver microsomes incubated for 20 mins in presence of NADPH by RP-HPLC analysis; type: ADME, Microsome
# [18] = Half life in mouse liver microsomes in presence of NADPH by RP-HPLC analysis; type: ADME, Microsome
# [19] = test system: Staphylococcus aureus; assay: Bactericidal activity against methicillin-resistant Staphylococcus aureus ATCC 43300 assessed as log reduction in viable bacterial count at 1 to 8 times MIC incubated for 24 hrs by time-kill curve assay; type: functional
# [20] = test system: Bacillus pumilus; assay: Effect on bacterial cell morphology in Bacillus pumilus CMCC63202 assessed as increase in bacterial cell length at 0.5 times MIC incubated for 18 hrs by phase-contrast optical microscopic analysis; type: functional, organism-based
# [21] = target: T1, Cell division protein FtsZ (Bacillus subtilis (strain 168)); assay: Induction of Bacillus subtilis FtsZ polymerization in presence of GTP measured over 30 mins by microtiter plate-based light-scattering assay
# [22] = Half life in mouse plasma at 25 ug/ml incubated for 24 hrs by RP-HPLC analysis; type: ADME, cell-free
# [23] = test system: HeLa; assay: Growth inhibition of human HeLa cells incubated for 48 hrs by MTT assay; type: cell-based
SMILES,MIC [1] [µg/mL],MIC [2] [µg/mL],MIC [3] [µg/mL],MIC [4] [µg/mL],MIC [5] [µg/mL],MIC [6] [µg/mL],MIC [7] [µg/mL],Activity [8],MIC [9] [µg/mL],MBC [11] [µg/mL],MBC [12] [µg/mL],MBC [13] [µg/mL],other results
NC(=O)c1c(F)ccc(OCC2=NN(c3ccc(Br)cc3)C(=O)C2)c1F,> 64,> 64,> 64,> 64,> 64,> 64,> 64,inactive,–,–,–,–,–
CC(=O)NC[C@H]1CN(c2ccc(N3CCOCC3)c(F)c2)C(=O)O1 [LINEZOLID],0.5,2,–,–,–,> 64,> 64,inactive,1,> 64,> 64,> 64,Activity [10]: 1 log10CFU/ml
NC(=O)c1c(F)ccc(OCc2nc3cc(Cl)cnc3s2)c1F,0.5,0.5,1,1,1,> 64,> 64,–,0.5,1,1,1,Ratio [14]: 1; Activity [15]: 4 log10CFU/ml
NC(=O)c1c(F)ccc(OCc2nn(-c3ccc(Br)cc3)c(=O)[nH]2)c1F,> 64,> 64,> 64,> 64,> 64,> 64,> 64,inactive,–,–,–,–,Stability [16]: Stable; CLH [17]: 24.3%; half-life [18]: > 1.5 h
CN[C@H](CC(C)C)C(=O)N[C@H]1C(=O)N[C@@H](CC(N)=O)C(=O)N[C@H]2C(=O)N[C@H]3C(=O)N[C@H](C(=O)N[C@H](C(=O)O)c4cc(O)cc(O)c4-c4cc3ccc4O)[C@H](O)c3ccc(c(Cl)c3)Oc3cc2cc(c3O[C@@H]2O[C@H](CO)[C@@H](O)[C@H](O)[C@H]2O[C@H]2C[C@](C)(N)[C@H](O)[C@H](C)O2)Oc2ccc(cc2Cl)[C@H]1O [VANCOMYCIN],–,–,–,–,–,–,–,–,–,2,1,1,Activity [15]: 4 log10CFU/ml
NC(=O)c1c(F)ccc(OCn2nc(-c3ccc(Cl)cc3)oc2=O)c1F,> 64,> 64,> 64,> 64,> 64,> 64,> 64,inactive,> 64,–,–,–,–
NC(=O)c1c(F)ccc(OCc2nn(-c3ccc(Br)cc3)c(=O)o2)c1F,0.125,1,1,1,1,> 64,> 64,–,0.5,1,1,1,Ratio [14]: 1; Activity [19]: 4 log10CFU/ml; Activity [20]: Active; Activity [21]: Dose-dependent effect; Stability [16]: Unstable; half-life at 25 ug/ml [22]: 2.5 h; CLH [17]: 24.3%; half-life [18]: > 1.5 h; IC50 [23]: > 64 µg/mL
CCn1c(COc2ccc(F)c(C(N)=O)c2F)nn(-c2ccc(Br)cc2)c1=O,> 64,> 64,> 64,> 64,> 64,> 64,> 64,inactive,–,–,–,–,–
CC(C)(C)n1nc(COc2ccc(F)c(C(N)=O)c2F)oc1=O,32,> 64,> 64,> 64,> 64,> 64,> 64,–,16,–,–,–,–
NC(=O)c1c(F)ccc(OCCc2nn(-c3ccc(Br)cc3)c(=O)o2)c1F,1,≤ 0.125,4,2,4,> 64,> 64,–,4,–,–,–,–
Cc1ccc(-n2nc(COc3ccc(F)c(C(N)=O)c3F)oc2=O)c(C)c1,2,2,32,16,64,> 64,> 64,–,32,–,–,–,–
CCc1ccc(-n2nc(COc3ccc(F)c(C(N)=O)c3F)oc2=O)cc1,0.5,4,2,2,4,> 64,> 64,–,2,–,–,–,–
